Bounds are passed on as bounds.

For experiment [1], the target named is T1, HiBit-KRAS^G12C (Homo sapiens, UniProt P01116, G12C). The experiment can be described thus: HiBit degradation assay in SW1573 HiBit-KRas^G12C cells. The experiment is classed as cell-based. Also noted: expressed in transfected cells; host or cells: SW1573 (clone E6), modified pcDNA3.1 vector, TK promoter. The settings on record: 24 hours; for Dmax: SW1573, SW1573 HiBit-KRas^G12C; for DC50: SW1573 HiBit-KRas^G12C. The gist of the method: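 HiBit-KRAS G12C degradation was measured after a 24 h compound exposure (titrated 10 μM–20 nM) in engineered SW1573 cells. Lytic HiBit luminescence, expressed relative to DMSO controls, yielded DC50 and Dmax from 4-parameter fits. Concentrations causing ≥50% loss in alamar blue viability were omitted as cytotoxic.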
T1 sequence (P01116 1-186 isoform P01116-2 G12C limits assumed): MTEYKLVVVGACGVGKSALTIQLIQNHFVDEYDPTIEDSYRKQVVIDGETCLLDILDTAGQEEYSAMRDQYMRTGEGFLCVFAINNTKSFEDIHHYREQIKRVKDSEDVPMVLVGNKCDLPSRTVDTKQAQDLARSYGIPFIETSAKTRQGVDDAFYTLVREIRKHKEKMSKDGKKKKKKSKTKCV

Experiment [2] addresses T1, HiBit-KRAS^G12C. The experiment can be described thus: HiBit degradation assay in MiaPaCa-2 HiBit-KRas^G12C cells. It counts as cell-based. As to conditions: 24 hours; for Dmax: maximum degradation; for DC50: read-out: KRas^G12C-HiBiT (MiaPaCa; 0.5% DMSO) IC50. The method in brief:
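DC50 and Dmax come from 4-parameter fits of DMSO-normalized HiBit luminescence after 24 hours' exposure at 37° C to 10 μM–20 nM compound in 0.1% or 0.5% DMSO. Cells: MiaPaCa-2 carrying one endogenously HiBit-tagged KRAS^G12C allele; concentrations causing ≥50% […] viability loss (alamar blue) excluded.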

Setting [3] is: 0.1% DMSO, read-out: KRas^G12C-HiBit (SW1573; 0.1% DMSO) Dmax**.
[4] abbreviates: 0.5% DMSO, read-out: KRas^G12C-HiBiT (SW1573; 0.5% DMSO) Dmax**.
Setting [5] is: 0.1% DMSO, read-out: KRas^G12C-HIBit (SW1573; 0.1% DMSO) DC50*.
[6] abbreviates: MIA PaCa-2, MiaPaCa-2 HiBit-KRas^G12C cells, 0.1% DMSO, read-out: KRas^G12C-HiBiT (MiaPaCa; 0.1% DMSO) DMax.
The mark [7] stands for this setting: MIA PaCa-2, MiaPaCa-2 HiBit-KRas^G12C cells, 0.5% DMSO, read-out: KRas^G12C-HiBiT (MiaPaCa; 0.5% DMSO) DMax.
[8] abbreviates: read-out: KRas^G12C-HiBiT (SW1573; 0.5% DMSO) IC50***, 0.5% DMSO.
[9] abbreviates: MiaPaCa-2 HiBit-KRas^G12C cells, 0.5% DMSO.

In the case of `C=CC(=O)N1CCN(c2nc(O[C@H](C)CN3CCC(COc4cc([C@@H](C(=O)N5C[C@H](O)C[C@H]5C(=O)N[C@@H](C)c5ccc(-c6scnc6C)cc5)C(C)C)on4)CC3)nc3c(F)c(-c4cc(O)cc5ccccc45)c(Cl)cc23)CC1` [Compound 20, (2S,4R)-1-[(2S)-2-[3-({1-[(2R)-2-{[6-chloro-8-fluoro-7-(3-hydroxynaphthalen-1-yl)-4-[4-(prop-2-enoyl)piperazin-1-yl]quinazolin-2-yl]oxy}propyl]piperidin-4-yl}methoxy)-1,2-oxazol-5-yl]-3-methylbutanoyl]-4-hydroxy-N-[(1S)-1-[4-(4-methyl-1,3-thiazol-5-yl)phenyl]ethyl]pyrrolidine-2-carboxamide], the Dmax in experiment [1] (setting [3]), in experiment [1] (setting [4]), in experiment [2] (setting [6]) and in experiment [2] (setting [7]) was 35 to 70% throughout. The DC50 in experiment [1] (setting [5]) lay in the range of 100 to 1000 nM.

Regarding `C=CC(=O)N1CCN(c2nc(OCCN3CCC(COC4(C(=O)N[C@H](C(=O)N5C[C@H](O)C[C@H]5C(=O)N[C@@H](C)c5ccc(-c6scnc6C)cc5)C(C)(C)C)CC4)CC3)nc3c(F)c(-c4cc(O)cc5ccccc45)c(Cl)cc23)C[C@@H]1CC#N` [Compound 96, (2S,4R)-1-[(2S)-2-{[1-({1-[2-({6-chloro-4-[(3S)-3-(cyanomethyl)-4-(prop-2-enoyl)piperazin-1-yl]-8-fluoro-7-(3-hydroxynaphthalen-1-yl)quinazolin-2-yl}oxy)ethyl]piperidin-4-yl}methoxy)cyclopropyl] formamido}-3,3-dimethylbutanoyl]-4-hydroxy-N-[(1S)-1-[4-(4-methyl-1,3-thiazol-5-yl)phenyl]ethyl]pyrrolidine-2-carboxamide], the Dmax in experiment [1] (setting [4]) and in experiment [2] (setting [7]) was above 70% each time. The DC50 in experiment [1] (setting [8]) is below 100 nM; in experiment [2] (setting [9]) it was 100 to 1000 nM.

On to `C=CC(=O)N1CCN(c2nc(O[C@H](C)CN3CCC(OCCOCC(=O)N[C@H](C(=O)N4C[C@H](O)C[C@H]4C(=O)N[C@@H](C)c4ccc(-c5scnc5C)cc4)C(C)(C)C)CC3)nc3c(F)c(-c4cc(O)cc5ccccc45)c(Cl)cc23)C[C@@H]1CC#N` [Compound 33, (2S,4R)-1-[(2S)-2-{2-[2-({1-[(2R)-2-({6-chloro-4-[(3S)-3-(cyanomethyl)-4-(prop-2-enoyl)piperazin-1-yl]-8-fluoro-7-(3-hydroxynaphthalen-1-yl)quinazolin-2-yl}oxy)propyl]piperidin-4-yl}oxy)ethoxy]acetamido}-3,3-dimethylbutanoyl]-4-hydroxy-N-[(1S)-1-[4-(4-methyl-1,3-thiazol-5-yl)phenyl]ethyl]pyrrolidine-2-carboxamide], for which the Dmax in experiment [1] (setting [3]), in experiment [1] (setting [4]), in experiment [2] (setting [6]) and in experiment [2] (setting [7]) was 35 to 70% each time. For the same molecule, the DC50 in experiment [1] (setting [5]) was 100 to 1000 nM.

Regarding `C=CC(=O)N1CCN(c2nc(O[C@H](C)CN3CCC(COCC(=O)N[C@H](C(=O)N4C[C@H](O)C[C@H]4C(=O)N[C@@H](C)c4ccc(-c5scnc5C)cc4)C(C)(C)C)CC3)nc3c(F)c(-c4cc(O)cc5ccccc45)c(Cl)cc23)CC1` [Compound 65, (2S,4R)-1-[(2S)-2-[2-({1-[(2R)-2-{[6-chloro-8-fluoro-7-(3-hydroxynaphthalen-1-yl)-4-[4-(prop-2-enoyl)piperazin-1-yl]quinazolin-2-yl]oxy}propyl]piperidin-4-yl}methoxy)acetamido]-3,3-dimethylbutanoyl]-4-hydroxy-N-[(1S)-1-[4-(4-methyl-1,3-thiazol-5-yl)phenyl]ethyl]pyrrolidine-2-carboxamide], the Dmax in experiment [1] (setting [3]) is 35 to 70%; in experiment [1] (setting [4]) it was above 70%; in experiment [2] (setting [6]), 35 to 70%; in experiment [2] (setting [7]) it was 35 to 70%. Besides, the DC50 in experiment [1] (setting [5]) was 100 to 1000 nM.

For the molecule `C=CC(=O)N1CCN(c2nc(OCCN3CCC(COCC(=O)N[C@H](C(=O)N4C[C@H](O)C[C@H]4C(=O)N[C@@H](C)c4ccc(-c5ccnn5C)cc4)C(C)(C)C)CC3)nc3c(F)c(-c4cc(O)cc5ccccc45)c(Cl)cc23)C[C@@H]1CC#N` (atropisomer, axis not shown) [Compound 136, (2S,4R)-1-[(2S)-2-[2-({1-[2-({6-chloro-4-[(3S)-3-(cyanomethyl)-4-(prop-2-enoyl)piperazin-1-yl]-8-fluoro-7-(3-hydroxynaphthalen-1-yl)quinazolin-2-yl}oxy)ethyl]piperidin-4-yl}methoxy)acetamido]-3,3-dimethylbutanoyl]-4-hydroxy-N-[(1S)-1-[4-(1-methyl-1H-pyrazol-5-yl)phenyl]ethyl]pyrrolidine-2-carboxamide], the Dmax in experiment [1] (setting [4]) and in experiment [2] (setting [7]) was above 70% each time. The DC50 in experiment [1] (setting [8]) and in experiment [2] (setting [9]) was 100 to 1000 nM in each case.

As for `C=CC(=O)N1CCN(c2nc(OCCN3CCC(COCC(=O)N[C@H](C(=O)N4C[C@@H](O)C[C@H]4C(=O)N[C@@H](C)c4ccc(-c5scnc5C)cc4)C(C)(C)C)CC3)nc3c(F)c(-c4cc(O)cc5ccccc45)c(Cl)cc23)C[C@@H]1CC#N` [Compound 6, (2S,4S)-1-[(2S)-2-[2-({1-[2-({6-chloro-4-[(3S)-3-(cyanomethyl)-4-(prop-2-enoyl)piperazin-1-yl]-8-fluoro-7-(3-hydroxynaphthalen-1-yl)quinazolin-2-yl}oxy)ethyl]piperidin-4-yl}methoxy)acetamido]-3,3-dimethylbutanoyl]-4-hydroxy-N-[(1S)-1-[4-(4-methyl-1,3-thiazol-5-yl)phenyl]ethyl]pyrrolidine-2-carboxamide], the DC50 in experiment [1] (setting [5]) is above 1000 nM. In experiment [2] (MIA PaCa-2, read-out: KRas^G12C-HiBiT (MiaPaCa; 0.1% DMSO) DMax, MiaPaCa-2 HiBit-KRas^G12C cells, 0.1% DMSO), the Dmax lay in the range of 35 to 70%.

Turning to `C=CC(=O)N1CCN(c2nc(OCCN3CCC(COCC(=O)N[C@H](C(=O)N4C[C@H](O)C[C@H]4C(=O)N[C@@H](C)c4ccc(-c5scnc5C)cc4)C(C)(C)C)CC3)nc3c(F)c(-c4cc(O)cc5ccccc45)c(Cl)cc23)[C@@H](C)C1` [Compound 119, (2S,4R)-1-[(2S)-2-(2-{[1-(2-{[6-chloro-8-fluoro-7-(3-hydroxynaphthalen-1-yl)-4-[(2S)-2-methyl-4-(prop-2-enoyl)piperazin-1-yl]quinazolin-2-yl]oxy}ethyl)piperidin-4-yl]methoxy}acetamido)-3,3-dimethylbutanoyl]-4-hydroxy-N-[(1S)-1-[4-(4-methyl-1,3-thiazol-5-yl)phenyl]ethyl]pyrrolidine-2-carboxamide], the Dmax in experiment [1] (setting [4]) and in experiment [2] (setting [7]) was above 70% throughout. Further, the DC50 in experiment [1] (setting [8]) and in experiment [2] (setting [9]) was 100 to 1000 nM in each case.

In the case of `C=CC(=O)N1CCN(c2nc(OCCN3CCC(COCC(=O)N[C@H](C(=O)N4C[C@@H](O)C[C@H]4C(=O)N[C@@H](C)c4ccc(-c5scnc5C)cc4)C(C)(C)C)CC3)nc3c(F)c(-c4cccc5cccc(C)c45)c(Cl)cc23)C[C@@H]1CC#N` [Compound 97], the Dmax in experiment [1] (setting [4]) is above 70%. For the same molecule, the DC50 in experiment [1] (setting [8]) and in experiment [2] (setting [9]) was above 1000 nM throughout.

`C=CC(=O)N1CCN(c2nc(OCCN3CCC(COc4cc([C@@H](C(=O)N5C[C@H](O)C[C@H]5C(=O)N[C@@H](C)c5ccc(-c6ccnn6C)cc5)C(C)C)on4)CC3)nc3c(F)c(-c4cc(O)cc5ccccc45)c(Cl)cc23)C[C@@H]1CC#N` [Compound 159, (2S,4R)-1-[(2S)-2-[3-({1-[2-({6-chloro-4-[(3S)-3-(cyanomethyl)-4-(prop-2-enoyl)piperazin-1-yl]-8-fluoro-7-(3-hydroxynaphthalen-1-yl)quinazolin-2-yl}oxy)ethyl]piperidin-4-yl}methoxy)-1,2-oxazol-5-yl]-3-methylbutanoyl]-4-hydroxy-N-[(1S)-1-[4-(1-methyl-1H-pyrazol-5-yl)phenyl]ethyl]pyrrolidine-2-carboxamide]: the DC50 in experiment [1] (setting [8]) and in experiment [2] (setting [9]) was above 1000 nM throughout.

Regarding `C=CC(=O)N1CCN(c2nc(OCCN3CCC(C)(COc4cc([C@@H](C(=O)N5C[C@H](O)C[C@H]5C(=O)N[C@@H](C)c5ccc(-c6scnc6C)cc5)C(C)C)on4)CC3)nc3c(F)c(-c4cc(O)cc5ccccc45)c(Cl)cc23)C[C@@H]1CC#N` [Compound 132, (2S,4R)-1-[(2S)-2-[3-({1-[2-({6-chloro-4-[(3S)-3-(cyanomethyl)-4-(prop-2-enoyl)piperazin-1-yl]-8-fluoro-7-(3-hydroxynaphthalen-1-yl)quinazolin-2-yl}oxy)ethyl]-4-methylpiperidin-4-yl}methoxy)-1,2-oxazol-5-yl]-3-methylbutanoyl]-4-hydroxy-N-[(1S)-1-[4-(4-methyl-1,3-thiazol-5-yl)phenyl]ethyl]pyrrolidine-2-carboxamide], the DC50 in experiment [1] (setting [8]) and in experiment [2] (setting [9]) was above 1000 nM in each case.

These data come from patent US20220370416A1, “COMPOUNDS AND METHODS FOR TARGETED DEGRADATION OF KRAS” (Arvinas Operations, Inc., priority 2020, published 2022).
